# According to patent publication US10143737B2, “Method for the vaccination against HIV” (Bionor Immuno AS, priority 2014, dated 2018):
# Bridges are numbered along the chain shown (N, C = ends). Roman numbers before positions name the chains, in order. Where no end group is shown, it is not given here.
# Experiments:
# HIV-specific T-cells = conditions: dendritic cells presenting Gag- or Nef-specific peptides; cited from earlier work
# [1] = test system: latently infected cell lines and primary T cells; conditions: cited from earlier work
# [2] = test system: Anti-C5/gp41 sera from BI400-B immunized rabbits; experiment: Competitive ELISA for rabbit sera after immunization with BI400-B; format: binding; conditions: for Inhibition of binding of rabbit sera to C5/gp41 (015/201): competitor preincubated with serum, 10-1000 μM
# Method: 50-100 μl of a mixture of BI400-015 and -201 (pre-incubated in Coating buffer—0.05M Na2CO3 pH9.6; denoted CB—in cold at 16 μg/ml for each peptide 1-3 days prior to coating) or just CB (background control) was used for coating wells in microtiter plates at 4° C. overnight. Plates were then washed 3x with washing buffer (PBS+1% v/v Triton-X100; denoted WB), followed by 2 h blocking at room temperature (RT) with 200 μl/well of blocking buffer (PBS+1% w/v BSA). Plates were then washed 3x with WB, followed by 1 h incubation at 37° C. with 60-100 μl/well of added rabbit serum samples (diluted 1:10-1:250 final concentration) preincubated together (4° C. overnight) with serial dilutions (ranging from 10-1000 μM final concentration) of 400-SEQ.B, BI400-015, BI400-201, BI400-204d, recombinant gp41 (Shin-Won Scientific, SWO 102 gp41), BI301-23 (irrelevant protein; control), no peptide (i.e. PBS; control), LTNP-sera pools (diluted 1:10 final concentration), or Blood donor sera-pools (diluted 1:10 final concentration; control). Plates were then washed 6x with WB, followed by 1 h incubation at RT with 70 μl/well of Alkaline Phosphatase-conjugated Goat-anti-Rabbit-Ig (6 μg/ml; Dako D0487). Plates were then washed 6x with WB, followed by 10-60 min incubation at RT with 100 μl/well of 0.3% w/v of Phenoftalein monophosphate (Sigma P-5758). Plates were finally quenched by adding 100 μl/well of Quench solution (0.1M TRIS+0.1M EDTA+0.5M NaOH+0.01% w/v NaN3; pH14), followed by ELISA reader (ASYS UVM 340) at 550 nm.
# [3] = test system: pooled human sera from HIV chronically infected individuals, LTNP and non-infected blood donors; experiment: Seroreactivity of pooled human sera to peptide-coated magnetic particles (general ELISA principle); format: binding; conditions: peptide 600 μg/ml alone or 300 μg/ml each in combination; positivity determined visually
# Method: Seroreactivity to SEQ ID NO: 1 alone or in combination with SEQ ID NOs. 6 (with the sequence […]), 8 and 9 was determined according to a general ELISA principle either using magnetic particles as a solid support or attachment of peptides to a 96-well tray.
# In the system described below, peptide was coated on to magnetic particles using generally accepted techniques. 300 μg was coated onto particles for all peptides with the exception of SEQ1 where 600 μg was used. SEQ ID NO: 1 (from C5) and SEQ ID NO: 6, 8 and 9 (from gp41) were preincubated overnight at 4 degrees C. to allow interactions to form between between C5 and gp41 sequences respectively and all combined. Sera were then incubated with the peptide coated beads according to established protocols. Visualisation of antibody binding to C5 peptides was achieved using protein G that can bind immunoglobulins from different species coupled to alkaline phosphatase. The positive control was commercially available serum from a sheep immunised with the C5 derived sequence […] (SEQ ID NO: 1).
# Pooled sera from 25 LTNP were tested for seroreactivity to SEQ ID NO: 1 alone and SEQ ID NO: 1 when in combination with SEQ ID NOs: 6 ([…]), 8 and 9 respectively and all combined. Pooled sera were also tested from 12 HIV positive, chronically infected individuals and 20 sera from blood donors.
# C5/gp41 (015/201) = experiment: Rabbit immunization with BI400-B vaccine, serum ELISA; format: in vivo, New Zealand White female rabbits; conditions: 500 μg intradermally weeks 0, 2, 6 in Freund's adjuvant; in the presence of PBS
# Method: New Zealand White female rabbits (n=3) were immunized intradermally at weeks 0, 2 & 6 with 1 ml of BI400-B vaccine consisting of 500 μg BI400-B in 50% V/V Freund's adjuvant (i.e. Complete Freund's adjuvant used for priming, followed by boostings with Incomplete Freund's adjuvant). Individual blood serum was isolated for ELISA.
# 50-100 μl of a mixture of BI400-015 and -201 (pre-incubated in Coating buffer—0.05M Na2CO3 pH9.6; denoted CB—in cold at 16 μg/ml for each peptide 1-3 days prior to coating) or just CB (background control) was used for coating wells in microtiter plates at 4° C. overnight. Plates were then washed 3x with washing buffer (PBS+1% v/v Triton-X100; denoted WB), followed by 2 h blocking at room temperature (RT) with 200 μl/well of blocking buffer (PBS+1% w/v BSA). […] Plates were finally quenched by adding 100 μl/well of Quench solution (0.1M TRIS+0.1M EDTA+0.5M NaOH+0.01% w/v NaN3; pH14), followed by ELISA reader (ASYS UVM 340) at 550 nm.
compound,measurement,setting,value
Nc1cccc2c1CN(C1CCC(=O)NC1=O)C2=O (stereo not shown) [Lenalidomide],Function of T-cells after in vitro stimulation in presence of IMiDs,HIV-specific T-cells,a number of improvements in the function of the T-cells
Nc1cccc2c1C(=O)N(C1CCC(=O)NC1=O)C2=O (stereo not shown) [pomalidomide],Function of T-cells after in vitro stimulation in presence of IMiDs,HIV-specific T-cells,a number of improvements in the function of the T-cells
"C/C=C1\NC(=O)[C@H]2CSSCC/C=C/[C@H](CC(=O)N[C@H](C(C)C)C(=O)N2)OC(=O)[C@H](C(C)C)NC1=O [romidepsin, (1S,4S,7Z,10S,16E,21R)-7-ethylidene-4,21-bis(1-methylethyl)-2-oxa-12,13-dithia-5,8,20,23-tetraazabicyclo[8.7.6] tricos-16-ene-3,6,9,19,22-pentone]",Activation of HIV-1 expression,[1],potently activates HIV-1 expression
APTKAKRRVVQREKR [SEQ ID NO: 1],Inhibition of binding of rabbit sera to C5/gp41 (015/201),[2],could be inhibited
same,"Seroreactivity, Blood-donors pool",[3],=
BI400-B: SEQ ID NO: 38 and SEQ ID NO: 39 linked via Cys and Lys residues (chain 1 GAKRRVVGGCGGAKRRVVQREKRAGEREKRA; chain 2 GKGGIEEEGGRDRDRGGEQDRDR; bridge I:10-II:2 (inferred)),Inhibition of binding of rabbit sera to C5/gp41 (015/201),[2],could be inhibited
same,Competition of anti-C5/gp41 rabbit sera by human sera pools,[2]; sera pools diluted 1:10,"competitively inhibited by LTNP-sera pools, but not with BD control sera"
same,Binding of sera from immunized rabbits to C5/gp41 peptides,C5/gp41 (015/201),bound to peptides corresponding to C5/gp41 (015/201)
DRPEGIEEEGGERDR (Glu can be Gly; Gly can be Arg; Arg can be Gln; Asp can be Gly; Arg can be Lys) [SEQ ID NO: 6],Inhibition of binding of rabbit sera to C5/gp41 (015/201),[2],could be inhibited
GGAIVNGSLADDDIVI [SEQ ID NO: 37],Inhibition of binding of rabbit sera to C5/gp41 (015/201),[2],could be inhibited
